Experimental findings from EP4710775A1, “COMPOSITION FOR PROMOTING CHILD DEVELOPMENT” (Meiji Holdings Co., Ltd., priority 2023, dated 2024) are described below.

Type in all cases: in vivo, mouse (C57BL/6J)
Experiment [1] is described as follows: Measurement of grip strength (forelimb) after weaning in mice given NMN in infancy. The conditions noted are these: three weeks after weaning; males and females combined, n = 20 per group; corrected by body weight; NMN orally gavaged days 3 to 21 after birth (500 mg/kg BW from day 14); vs control group, p < 0.05. As to the method:
(§1) β-Nicotinamide mononucleotide (NMN) to be administered to mice was dissolved at a concentration of 100 mg/mL in distilled water and then used for administration.
(§2) Ten female C57BL/6J lines at day 13 of gestation were purchased. The mice were individually raised in a breeding room at a room temperature of 22 ± 2°C, humidity of 55 ± 15%, light period of 7:00 to 19:00, and dark period of 19:00 to 7:00 until the birth of the pups, and after the birth, group breeding was performed with the pups until weaning, and the born mouse pups were used for the test. […]
(§3) The body weights of all the mouse pups were measured on the day of weaning, and the pups were divided into a total of four groups: a control group and an NMN group for males and a control group and an NMN group also for females (n = 10 for each group), so that the average values of the body weights were equal. […]
Three weeks after weaning, the grip strength (forelimb only) of all the individuals was measured using Grip Strength Meter for Rats & Mice (MK-380CM/F, manufactured by Muromachi Kikai Co., Ltd.). The measurement was performed 10 times per individual, and the maximum value was recorded. […]

The nature of experiment [2]: Open field test: amount of voluntary activity and average moving speed after weaning. Conditions: two weeks after weaning, 10 minutes, males and females combined, n = 20 per group, NMN orally days 3 to 21 after birth, vs control group, p < 0.05. As to the method:
as §1, §2, §3
Two weeks after weaning, an open field test was performed on all the individuals to measure the amount of voluntary activity and the average moving speed. […] From the obtained moving image, the amount of voluntary activity (total movement distance) and the average moving speed (average of moving speed excluding immobility state) were calculated using dedicated analysis software (SMART3.0: manufactured by Panlab).

Experiment [3] is described as follows: Measurement of plasma triglyceride concentration after weaning (Triglyceride E-test Wako). Conditions: two weeks after weaning, males only, NMN n = 5, control n = 7, NMN orally days 3 to 21 after birth, vs control group. The procedure: as §1
(§4) Ten female C57BL/6J lines at day 13 of gestation were purchased. The mice were individually raised in a breeding room at a room temperature of 22 ± 2°C, humidity of 55 ± 15%, light period of 7:00 to 19:00, and dark period of 19:00 to 7:00 until the birth of the pups, and after the birth, group breeding was performed with the pups until weaning, and the born mouse pups were used for the test.
(§5) All the mouse pups were subjected to sex determination on day 3 after birth, and were divided into distilled water administration (later control group) and NMN administration (later NMN group) so that the number of males and females was approximately half in the littermates. […]
(§6) The body weights of the mouse pups were measured on the day of weaning, and the pups were divided into a total of two groups: a control group (n = 7) and an NMN group (n = 5) only for males. […]
Using the separated plasma, the triglyceride concentration was measured by a kit (Triglyceride E-test Wako: No. 432-40201).

Experiment [4] is described as follows: Measurement of blood glucose level in plasma after weaning (Glucose II-test Wako). The conditions noted are these: two weeks after weaning, males only, NMN n = 5, control n = 7, NMN orally days 3 to 21 after birth, vs control group, p < 0.01. The procedure: as §1, §4, §5, §6
Using the separated plasma, the blood glucose concentration (blood glucose level) was measured by a kit (Glucose II-test Wako: No. 439-90901).

The nature of experiment [5]: White fat weight measurement (white adipose tissue around the reproductive organ) after weaning. The conditions noted are these: two weeks after weaning; relative weight corrected by body weight; males and females combined, n = 10 per group; NMN orally days 3 to 21 after birth; vs control group, p < 0.01. The procedure: as §1, §4, §5
The body weights of all the mouse pups were measured on the day of weaning, and the pups were divided into a total of four groups: a control group (n = 7) and an NMN group (n = 5) for males, and a control group (n = 3) and an NMN group (n = 5) also for females. After weaning, the mice were normally bred for 2 weeks and dissected, the white adipose tissue around the reproductive organ was extracted, and the weight thereof was measured. […]

As for `NC(=O)c1ccc[n+]([C@@H]2O[C@H](COP(=O)([O-])O)[C@@H](O)[C@H]2O)c1` [NMN, β-Nicotinamide mononucleotide], in experiment [1], the grip strength entry is given as “high as compared to that in the control group”. Further, in experiment [2] (excluding immobility state), the average moving speed result is given as “high as compared to those in the control group”. In experiment [2] (total movement distance), the “amount of voluntary activity” value is “high as compared to those in the control group”. The blood triglyceride concentration result in experiment [3] is recorded as “tended to be low as compared to that in the control group”. In addition, in experiment [4], the blood glucose levels entry is recorded as “significantly low as compared to those in the control group”. The white fat weight entry in experiment [5] is reported as “low as compared to that in the control group”.
